Experimental data taken from patent publication US20120263848A1, “Organic Compounds” (priority 2009, published 2012).
Entries after “also recorded” stand apart in the source; their conditions may differ.

What was measured:
Type in all cases: in vivo
panel of trained experts = experiment: Taste evaluation of diluted sample solutions by a panel of trained experts; settings: for taste of sample solutions (inherent sweetness): 1% ethanol solutions diluted with water to differing ppm concentrations; for effectiveness at creating modifying, or enhancing the sweet flavour of compositions and consumable products: general statement of the applicant
Experimental: 1% solutions of compounds of formula (I) were prepared in ethanol. These 1% solutions were then further diluted, using water, to create sample solutions of differing ppm concentrations. A panel of trained experts was then asked to evaluate the taste of each sample solution and to comment on any inherent sweetness, other perceived taste, or flavor attributes. After tasting each sample the experts rinsed their mouths with water and a break was observed until the stimulus disappeared. […]

[1] = system: sweet sensitive panelists; experiment: Isointensity measurement in water against sucrose solutions (R-index ranking)
Experimental: A 1% solution of N-cycloheptyl-2-methylindoline-1-carboxamide was prepared in ethanol. This 1% solution was then further diluted, using water, to create a 5 ppm sample solution of N-cycloheptyl-2-methylindoline-1-carboxamide. To determine the isointensity of this solution a panel of trained experts was then asked to evaluate the taste (in particularly the sweet taste) of this sample solution in comparison to 0.5%, 1% and 1.5% sample sucrose solutions. Panel testing was carried out in the following way: Twenty milliliters of each of the samples was presented blind and in counter balanced order following a William's Latin square design, to 20 sweet sensitive panelists. In two replications (over 1 session), panelists were asked to taste and rank the solutions from least sweet to most sweet. […] A 1% solution of (R)-N-cyclooctyl-2-methylindoline-1-carboxamide was prepared in ethanol. This 1% solution was then further diluted, using water, to create a 2 ppm sample solution of (R)-N-cyclooctyl-2-methylindoline-1-carboxamide. To determine the isointensity of this solution a panel of trained experts was then asked to evaluate the taste (in particularly the sweet taste) of this sample solution in comparison to 0.5%, 1% and 1.5% sample sucrose solutions. Panel testing was carried out in the following way: Twenty milliliters of each of the samples was presented blind and in counter balanced order following a William's Latin square design, to 20 sweet sensitive panelists. In two replications (over 1 session), panelists were asked to taste and rank the solutions from least sweet to most sweet.

[2] = system: sweet sensitive panelists; experiment: Sweet enhancement in 7% sucrose (aqueous solution, R-index ranking)
Experimental: A 1% ethanol solution of (R)-N-cyclooctyl-2-methylindoline-1-carboxamide was added into an aqueous 7% sucrose solution. […] To determine its isointensity a panel of trained experts was then asked to evaluate the taste (in particularly the sweet taste) of this sample solution in comparison to aqueous sample solutions containing 7%, 8%, 9% and 10% sucrose, but without added (R)-N-cyclooctyl-2-methylindoline-1-carboxamide. Panel testing was carried out in the following way: Twenty milliliters of each of the sample solutions was presented blind and in random order to 20 sweet sensitive panelists. In two replications (over 1 session), panelists were asked to rank the solutions from least sweet to most sweet. The data was then subjected to an R-index analysis as described in example 5.

[3] = system: sweet sensitive panelists; experiment: Sweet enhancement in a cola beverage application (7% sucrose cola, R-index ranking)
Experimental: A 1% ethanol solution of N-cycloheptyl-2-methylindoline-1-carboxamide was added into a 7% sucrose containing cola solution. […] To determine its isointensity a panel of trained experts was then asked to evaluate the taste (in particularly the sweet taste) of this sample solution in comparison to sample cola solutions containing 7%, 8%, 9% and 10% sucrose but no N-cycloheptyl-2-methylindoline-1-carboxamide. Panel testing was carried out in the following way: Twenty milliliters of each of the sample solutions was presented blind and in random order to 20 sweet sensitive panelists. In two replications (over 1 session), panelists were asked to rank the solutions from least sweet to most sweet. The data was then subjected to an R-index analysis as described in example 15.

[4] = 2 ppm in water vs. 0.5% sucrose solution
[5] = 2 ppm in water vs. 1.0% sucrose solution
[6] = 2 ppm in water vs. 1.5% sucrose solution
[7] = 5 ppm in water vs. 0.5% sucrose solution
[8] = 5 ppm in water vs. 1.0% sucrose solution
[9] = 5 ppm in water vs. 1.5% sucrose solution
[10] = 7% sugar cola + 5 ppm vs. 7% sugar
[11] = 7% sugar cola + 5 ppm vs. 8% sugar
[12] = 7% sugar cola + 5 ppm vs. 9% sugar
[13] = 7% sugar cola + 5 ppm vs. 10% sugar

C[C@@H]1Cc2ccccc2N1C(=O)NC1CCCCCCC1 [Example 20, (R)-N-cyclooctyl-2-methylindoline-1-carboxamide]
taste of sample solutions (inherent sweetness) (panel of trained experts): sweet
effectiveness at creating modifying, or enhancing the sweet flavour of compositions and consumable products (panel of trained experts): particularly effective
R-index [1, 4]: 27.00
Significantly different (p < 0.05) [1, 4]: Yes
Experimental Compound Sweetness [1, 5]: significantly less sweet
R-index [1, 5]: 72.31
Significantly different (p < 0.05) [1, 5]: Yes
Experimental Compound Sweetness [1, 6]: significantly less sweet
R-index [1, 6]: 99.13
Significantly different (p < 0.05) [1, 6]: Yes
sweetness enhancer behaviour ([2]; 2 ppm in 7% sucrose, iso sweet with 8% sucrose, expected less sweet than 8%): behaving as a sweetness enhancer
Experimental Compound Sweetness ([2]; 7% sugar + 2 ppm vs. 7% sugar): significantly more sweet
R-index ([2]; 7% sugar + 2 ppm vs. 7% sugar): 35.53
Significantly different (p < 0.05) ([2]; 7% sugar + 2 ppm vs. 7% sugar): Yes
Experimental Compound Sweetness ([2]; 7% sugar + 2 ppm vs. 8% sugar): Iso sweet
R-index ([2]; 7% sugar + 2 ppm vs. 8% sugar): 61.44
Significantly different (p < 0.05) ([2]; 7% sugar + 2 ppm vs. 8% sugar): No
Experimental Compound Sweetness ([2]; 7% sugar + 2 ppm vs. 9% sugar): significantly less sweet
R-index ([2]; 7% sugar + 2 ppm vs. 9% sugar): 77.09
Significantly different (p < 0.05) ([2]; 7% sugar + 2 ppm vs. 9% sugar): Yes
Experimental Compound Sweetness ([2]; 7% sugar + 2 ppm vs. 10% sugar): significantly less sweet
R-index ([2]; 7% sugar + 2 ppm vs. 10% sugar): 88.44
Significantly different (p < 0.05) ([2]; 7% sugar + 2 ppm vs. 10% sugar): Yes

C[C@@H]1Cc2ccccc2N1C(=O)NC1CCCCCC1 [Example 18, (R)-N-cycloheptyl-2-methylindoline-1-carboxamide]
taste of sample solutions (inherent sweetness) (panel of trained experts): sweet
effectiveness at creating modifying, or enhancing the sweet flavour of compositions and consumable products (panel of trained experts): particularly effective

CC1Cc2ccccc2N1C(=O)NC1CCCCCC1 (centres unmarked) [Example 2, N-cycloheptyl-2-methylindoline-1-carboxamide]
Experimental Compound Sweetness [1, 7]: Iso-sweet; also recorded: iso sweet
R-index [1, 7]: 39.38
Significantly different (p < 0.05) [1, 7]: No
Experimental Compound Sweetness [1, 8]: significantly less sweet
R-index [1, 8]: 78.63
Significantly different (p < 0.05) [1, 8]: Yes
Experimental Compound Sweetness [1, 9]: significantly less sweet
R-index [1, 9]: 92.00
Significantly different (p < 0.05) [1, 9]: Yes
sweetness enhancer behaviour ([3]; 5 ppm in 7% sucrose cola, iso sweet with 8% instead of expected 7.5% sucrose): behaving as a sweetness enhancer
Experimental Compound Sweetness [3, 10]: significantly more sweet
R-index [3, 10]: 37.72
Significantly different (p < 0.05) [3, 10]: Yes
Experimental Compound Sweetness [3, 11]: Iso sweet
R-index [3, 11]: 40.03
Significantly different (p < 0.05) [3, 11]: No
Experimental Compound Sweetness [3, 12]: significantly less sweet
R-index [3, 12]: 68.97
Significantly different (p < 0.05) [3, 12]: Yes
Experimental Compound Sweetness [3, 13]: significantly less sweet
R-index [3, 13]: 90.78
Significantly different (p < 0.05) [3, 13]: Yes
